Data published in patent EP4782431A1 (Suzhou Merna Therapeutics Co. Ltd, priority 2023, dated 2025).

Tests used:
[1] = system: rat models with a hand-foot skin reaction; experiment: rat models with a hand-foot skin reaction; format: in vivo, SD rats; settings: for Incidence rate Left paw: once daily 30 days; for Incidence rate Right paw: right paw with blank matrix ointment, 30 days
Experimental: After adaptive feeding for one week, SD rats (with a body weight of approximately 200 g) were randomly divided into groups with balanced body weight, with 12 rats in each group. Modeling drugs (including sorafenib, erlotinib, afatinib, and osimertinib) were respectively dissolved in a solution containing 5% of DMSO, 45% of PEG400, and 50% of H2O, and the modeling drugs were diluted to required concentrations and then administered once daily by gavage at doses shown in Table 3. After administration by gavage for 1 hour, 0.05 g of ointments containing different mass proportions of test compounds were evenly applied to left paws of the rats, a blank matrix ointment was applied to right paws of the rats to serve as a self-control, and no ointment was applied to the rats in a blank control group. After drug application, four limbs were continuously immobilized for 2 hours, then wiped with clean water to remove the residual drugs, removed from immobilization, and restored to free movement. The modeling drugs, the blank matrix ointment, and the ointments containing the test compounds were all administered once daily. After continuous administration for 30 days, the rats were euthanized, and paw plantar skin tissues were collected, fixed in 10% neutral formalin, […]. The ointments for the test compounds were prepared by mixing the compounds, white beeswax, white petrolatum, and light liquid paraffin in specific ratios (weight ratios of 3 ointments were respectively 1:18:58:23, 3:18:57:22, and 10:20:40:30). The blank matrix ointment was prepared by mixing white beeswax, white petrolatum, and light liquid paraffin in a specific ratio (weight ratio of 18:60:22).
Tissue staining: After dewaxing and rehydration, the paw plantar skin tissue sections of the above rats were stained in a hematoxylin solution for several minutes, cleaned, and placed in 1% acid alcohol for soaking until the sections faded to light blue-red. After cleaning with running water for 5 minutes, the sections were stained with eosin for 2-3 minutes, cleaned to remove excess dyes, dehydrated, then permeabilized by adding xylene for several minutes, and sealed and fixed with a neutral resin. The stratum corneum was observed under an optical microscope, and the thickness of the epidermal stratum corneum was measured using Dmetrix software.
Immunohistochemical staining: After dewaxing and hydration, the paw plantar skin tissue sections of the above rats were incubated with 3% H2O2 at room temperature for 30 minutes and blocked with 10% goat serum for 30 minutes after antigen retrieval. A KRT1 antibody (Abcam, ab93652) and a Loricrin antibody (Abcam, ab183646) were added dropwise, the sections were incubated overnight at 4°C, and an HRP secondary antibody (ZSGB-BIO, PV-6001) and a DAB kit (ZSG-BIO, ZLI9017) were added for color development. The sections were re-stained with hematoxylin, cleaned, and sealed and fixed with a neutral resin, and the expression amounts of KRT1 and Loricrin were observed under an optical microscope.
An incidence rate calculation method involves a proportion of animals in each group meeting the above criteria for determining successful modeling, that is, incidence rate = (number of successfully modeled rats/total number of rats in the group)*100%. […]

[2] = system: kinase inhibitor-induced mouse model with hand-foot skin reaction; experiment: kinase inhibitor-induced mouse model with hand-foot skin reaction; format: in vivo, ICR mice; settings: for expression level of cytokine IL-1β in the skin tissues of the hind limb toes of the mice / infiltration of inflammatory cells / thickening of the epidermal layer and the stratum corneum in the skin tissues: 3% ointment topical or nicotinamide 100 mg/kg oral; for infiltration of inflammatory cells / thickening of the epidermal layer and the stratum corneum in the skin tissues / swelling of the toes caused by the modeling drugs: sorafenib and osimertinib models; for swelling of the toes caused by the modeling drugs: compound of formula (I) 3% ointment topical or nicotinamide 100 mg/kg oral, once daily 16 days
Source text: After adaptive feeding for 7 days, SPF-grade ICR mice (male, 5-6 weeks old, with a body weight of approximately 35 g) were randomly divided into groups, including a blank control group (6 mice), a sorafenib modeling group (6 mice), an osimertinib modeling group (6 mice), a sorafenib + compound of formula (I) group (6 mice), an osimertinib + compound of formula (I) group (6 mice), a sorafenib + nicotinamide group (6 mice), and an osimertinib + nicotinamide group (6 mice). The groups were respectively administered corresponding modeling drugs by oral gavage (sorafenib at 100 mg/kg and osimertinib at 10 mg/kg) once daily; and the blank control group was administered an equivalent volume of normal saline. After administration with the chemotherapeutic drugs for 2 weeks, the ointments containing the compound of formula (I) (at a compound content of 3%) used in Example 10 were respectively applied topically in the groups, or nicotinamide was orally administered (100 mg/kg) once daily continuously for 16 days.
Measurement of the degree of swelling of toes: The degree of swelling of hind limb toes of the mice was measured using a toe swelling tester (KW-7C, Nanjing Calvin Biotechnology Co., Ltd.) before administration with the modeling drugs, after administration with the modeling drugs for 2 weeks, and before sacrifice, respectively. Before measurement, ankle joints of hind feet of the mice were marked at same positions before administration, after administration for 2 weeks, and before sacrifice. During measurement, water was properly located at the same level as the marked positions, and numerical values were recorded after becoming stable.
Pathological staining of skin tissues: Skin tissue samples were selected from hind limb toes of the mice and placed in 4% paraformaldehyde for fixation at room temperature for 4 hours. Then, the tissues were taken out and rinsed with running water for several hours. The samples were subjected to dehydration treatment with 70%, 80%, and 90% ethanol solutions, followed by treatment with a mixed solution of equal amounts of absolute alcohol and xylene for 15 minutes, and then permeabilized twice with a xylene solution for 15 minutes each time until the samples became transparent. The samples were placed in a mixture of half xylene and half paraffin for soaking for 15 minutes, and then, paraffin I and paraffin II were added for wax penetration for one hour, respectively. After embedding with paraffin, the samples were sectioned, baked, dewaxed, and hydrated. Then, the hydrated sections were placed in a hematoxylin solution (ZSGB-BIO, article No. 23041001) for staining for 3 minutes, and a differentiation solution of hydrochloric acid in ethanol was added for differentiation for 15 seconds. After rinsing with water, a Scott bluing solution (Servicebio, article No. 20230801) was added for bluing for 15 seconds. After rinsing with running water, the sections were stained with an eosin solution (Solarbio, article No. 33535) for 3 minutes, rinsed with running water, dehydrated, permeabilized, sealed, and inspected under a microscope.
Immunohistochemical staining: After baking, dewaxing, and hydration, paraffin sections of skin tissues of hind limb toes of the mice were subjected to antigen retrieval using a 0.2 M citric acid buffer solution (containing 1.534 g of citric acid, 3.1 g of sodium citrate, and 100 mL of distilled water, pH 4.7). Endogenous […] was removed using 3% hydrogen peroxide (Shandong Annjet High-Tech Disinfection Technology Co., Ltd., article No. 20290902), and the sections were incubated at room temperature for 10 minutes and then fully rinsed with a PBS buffer solution (containing 8 g of NaCl, 0.2 g of KCl, 1.44 g of Na2HPO4, and 1 M HCl, pH 7.4). The sections were permeabilized with 0.5% Triton-X-100 (AmyJet Scientific, article No. A-CSH436-100 mL), respectively permeabilized with mouse anti-IL-1β and rabbit IL-8 for 10 minutes, and not permeabilized with rabbit anti-IL-6. […]

[3] = Afatinib 50 mg/kg model, 1% ointment on left paw
[4] = Afatinib 50 mg/kg model, 3% ointment on left paw
[5] = Afatinib 50 mg/kg model, 10% ointment on left paw
[6] = Erlotinib 70 mg/kg model, 1% ointment on left paw
[7] = Erlotinib 70 mg/kg model, 3% ointment on left paw
[8] = Erlotinib 70 mg/kg model, 10% ointment on left paw
[9] = Osimertinib 60 mg/kg model, 1% ointment on left paw
[10] = Osimertinib 60 mg/kg model, 3% ointment on left paw
[11] = Osimertinib 60 mg/kg model, 10% ointment on left paw
[12] = Sorafenib 100 mg/kg model, 1% ointment on left paw
[13] = Sorafenib 100 mg/kg model, 3% ointment on left paw
[14] = Sorafenib 100 mg/kg model, 10% ointment on left paw

SMILES: NC(=O)[C@H]1CCCc2c1[nH]c1ccc(Cl)cc21 [Compound of formula (I), (S)-6-chloro-2,3,4,9-tetrahydro-1H-carbazole-carboxamide]
- Incidence rate Left paw [1, 3]: 3/12 (25%)
- Incidence rate Left paw [1, 4]: 2/12 (17%)
- Incidence rate Left paw [1, 5]: 0/12 (0%)
- Incidence rate Right paw [1, 3]: 9/12 (75%)
- Incidence rate Right paw [1, 4]: 4/12 (33%)
- Incidence rate Right paw [1, 5]: 3/12 (25%)
- Incidence rate Left paw [1, 6]: 3/12 (25%)
- Incidence rate Left paw [1, 7]: 2/12 (17%)
- Incidence rate Left paw [1, 8]: 1/12 (8%)
- Incidence rate Right paw [1, 6]: 10/12 (83%)
- Incidence rate Right paw [1, 7]: 5/12 (42%)
- Incidence rate Right paw [1, 8]: 4/12 (33%)
- Incidence rate Left paw [1, 9]: 2/12 (17%)
- Incidence rate Left paw [1, 10]: 2/12 (17%)
- Incidence rate Left paw [1, 11]: 0/12 (0%)
- Incidence rate Right paw [1, 9]: 8/12 (67%)
- Incidence rate Right paw [1, 10]: 4/12 (33%)
- Incidence rate Right paw [1, 11]: 3/12 (25%)
- Incidence rate Left paw [1, 12]: 2/12 (17%)
- Incidence rate Left paw [1, 13]: 2/12 (17%)
- Incidence rate Left paw [1, 14]: 0/12 (0%)
- Incidence rate Right paw [1, 12]: 9/12 (75%)
- Incidence rate Right paw [1, 13]: 4/12 (33%)
- Incidence rate Right paw [1, 14]: 4/12 (33%)
- stratum corneum thickness of the paw plantar skin of the modeled rats ([1]; ointment on paw of modeled rats): effectively decrease
- incidence rate of hand-foot skin reaction at a drug application site ([1]; ointment, mass content of 1%): significantly decrease
- incidence rate of hand-foot skin reaction in all paws of the rats ([1]; ointment, mass content of 3% and 10%): significantly decrease
- formation of blisters in the epidermis and subepidermis caused by the modeling drugs ([1]; pathological scoring (FIG. 10)): effectively alleviate
- inflammatory cell infiltration in the dermis ([1]; pathological scoring (FIG. 10)): inhibit
- skin congestion phenomenon ([1]; pathological scoring (FIG. 10)): significantly alleviate
- formation of blisters in the epidermis and subepidermis caused by the modeling drugs ([1]; tissue staining (FIG. 9)): effectively alleviate
- inflammatory cell infiltration in the dermis ([1]; tissue staining (FIG. 9)): inhibit
- skin congestion phenomenon ([1]; tissue staining (FIG. 9)): significantly alleviate
- expression level of cytokine IL-1β in the skin tissues of the hind limb toes of the mice ([2]; osimertinib model): significantly decrease
- infiltration of inflammatory cells [2]: no infiltration of inflammatory cells observed
- thickening of the epidermal layer and the stratum corneum in the skin tissues [2]: effectively alleviate
- swelling of the toes caused by the modeling drugs [2]: effectively alleviate
- expression level of cytokine IL-1β in the skin tissues of the hind limb toes of the mice ([2]; sorafenib model): significantly decrease

SMILES: NC(=O)c1cccnc1 [Nicotinamide, nicotinamide]
- expression level of cytokine IL-1β in the skin tissues of the hind limb toes of the mice ([2]; osimertinib model): didn't have a significant impact
- infiltration of inflammatory cells [2]: infiltration of inflammatory cells still observed
- thickening of the epidermal layer and the stratum corneum in the skin tissues [2]: didn't significantly alleviate
- swelling of the toes caused by the modeling drugs [2]: not observed that oral administration of the nicotinamide at 100 mg/kg significantly alleviated the swelling
- expression level of cytokine IL-1β in the skin tissues of the hind limb toes of the mice ([2]; sorafenib model): didn't have a significant impact

SMILES: C=CC(=O)Nc1cc(Nc2nccc(-c3cn(C)c4ccccc34)n2)c(OC)cc1N(C)CCN(C)C [Osimertinib, osimertinib]
- KRT1 and Loricrin in tissues ([1]; rat, in vivo): significantly increased
- stratum corneum thickness of the paw plantar skin ([1]; rat, in vivo): significantly higher than that of normal rats
- cytokine IL-1β in the skin tissues of the hind limb toes of the mice ([2]; modeling drug oral 14 days, vs normal control group, p<0.05): significantly increased
- swelling of the hind limb toes of the mice ([2]; modeling drug oral, 14 days: sorafenib 100 mg/kg, osimertinib 10 mg/kg): significant swelling of the hind limb toes of the mice was caused
- epidermal layer and the stratum corneum in the skin tissues of the hind limb toes ([2]; modeling drug oral, 14 days: sorafenib, osimertinib, vs normal control group): significantly thickened
- skin of the hind limb toes of the mice (appearance) ([2]; modeling for 14 days: sorafenib 100 mg/kg, osimertinib 10 mg/kg oral gavage once daily, vs normal control group): obvious erythema and rhagades
